Data from patent US9540345B2, “Antiviral compounds” (priority 2013, dated 2017).
pEC50: −log10 of the molar value. Where a name gives a salt, the structure may show the parent alone. Read-outs that look alike come from different tables or passages of the source.

Tests used:
[1] = test system: pseudotyped VSV G particles (VSVpp); experiment: microbe, parasite or virus in culture; format: cell-based, vesicular stomatitis virus; settings: for EC50: Vesicular stomatitis virus, 72 h, read-out: VSVpp (EC50, μM)
[2] = test system: pseudotyped HCV GT1b particles (HCVpp); experiment: microbe, parasite or virus in culture; format: cell-based, HCV GT1b Con1 strain; settings: for pEC50: read-out: HCVpp GT-1b (EC50); for EC50: Hepatitis C virus, GT1B, 72 h, read-out: HCVpp GT-1b (EC50, μM)

| Compound | pEC50 ([1]; read-out: VSVpp (EC50)) | pEC50 [2] | EC50 [1] | EC50 [2] |
| --- | --- | --- | --- | --- |
| 5-[4-(5-Amino-1H-[1,2,4]triazol-3-ylamino)-2-chloro-6-trifluoromethyl-phenyl]-pyridine-2-sulfonic acid tert-butylamide [Compound 24] | 5.39 | 8.10 | – | – |
| COc1ccc(-c2c(Cl)cc(Nc3n[nH]c(N)n3)cc2Cl)cn1 [Compound 1, N*3*-[3,5-Dichloro-4-(6-methoxy-pyridin-3-yl)-phenyl]-1H-[1,2,4]triazole-3,5-diamine] | – | – | 3.7 µM | 0.767 µM |
| CS(=O)(=O)c1cncc(-c2c(Cl)cc(Nc3n[nH]c(N)n3)cc2Cl)c1 [Compound 2, N*3*-[3,5-Dichloro-4-(5-methanesulfonyl-pyridin-3-yl)-phenyl]-1H-[1,2,4]triazole-3,5-diamine] | – | – | ≥ 10 µM | 0.386 µM |
| Nc1nc(Nc2cc(Cl)c(-c3ccc(=O)[nH]c3)c(Cl)c2)n[nH]1 [Compound 3, 5-[4-(5-Amino-1H-[1,2,4]triazol-3-ylamino)-2,6-dichloro-phenyl]-1H-pyridin-2-one] | – | – | ≥ 10 µM | 0.364 µM |
| Nc1ccc(-c2c(Cl)cc(Nc3n[nH]c(N)n3)cc2Cl)cn1 [Compound 4, N*3*-[4-(6-Amino-pyridin-3-yl)-3,5-dichloro-phenyl]-1H-[1,2,4]triazole-3,5-diamine] | – | – | 1.4 µM | 0.173 µM |
| Nc1ncc(-c2c(Cl)cc(Nc3n[nH]c(N)n3)cc2Cl)cn1 [Compound 5, N*3*-[4-(2-Amino-pyrimidin-5-yl)-3,5-dichloro-phenyl]-1H-[1,2,4]triazole-3,5-diamine] | – | – | 0.4 µM | 0.1 µM |
| COc1cc(-c2c(Cl)cc(Nc3n[nH]c(N)n3)cc2Cl)ccn1 [Compound 6, N3-(3,5-dichloro-4-(2-methoxypyridin-4-yl)phenyl)-1H-1,2,4-triazole-3,5-diamine] | – | – | ≥ 10 µM | 0.33 µM |
| Nc1nc(Nc2cc(Cl)c(-c3cc[nH]c(=O)c3)c(Cl)c2)n[nH]1 [Compound 7, 4-[4-(5-Amino-1H-[1,2,4]triazol-3-ylamino)-2,6-dichloro-phenyl]-1H-pyridin-2-one] | – | – | ≥ 10 µM | 0.809 µM |
| CS(=O)(=O)Nc1ccc(-c2c(Cl)cc(Nc3n[nH]c(N)n3)cc2Cl)cn1 [Compound 8, N-{5-[4-(5-Amino-1H-[1,2,4]triazol-3-ylamino)-2,6-dichloro-phenyl]-pyridin-2-yl}-methanesulfonamide] | – | – | ≥ 10 µM | 0.386 µM |
| Nc1n[nH]c(Nc2cc(F)c(-c3ccc(F)nc3)c(C(F)(F)F)c2)n1 [Compound 9, N^5-(3-Fluoro-4-(6-fluoropyridin-3-yl)-5-trifluoromethylphenyl)-1H-[1,2,4]-triazole-3,5-diamine] | – | – | 31.1 µM | 0.998 µM |
| Nc1n[nH]c(Nc2cc(F)c(-c3cccnc3)c(C(F)(F)F)c2)n1 [Compound 10, N^5-(3-Fluoro-4-(pyridin-3-yl)-5-trifluoromethylphenyl)-1H-[1,2,4]-triazole-3,5-diamine] | – | – | 34.2 µM | 1.24 µM |
| CS(=O)(=O)c1ccc(-c2c(Cl)cc(Nc3nc(N)n[nH]3)cc2Cl)cn1 [Compound 11, N^5-(3,5-Dichloro-4-(6-methanesulfonyl-pyridin-3-yl)-phenyl)-1H-[1,2,4]-triazole-3,5-diamine] | – | – | 2.2 µM | 0.271 µM |
| CC(C)(C)OC(=O)N1CC2(C1)CN(c1c(Cl)cc(Nc3nc(N)n[nH]3)cc1Cl)C2 [Compound 12, 6-[4-(5-Amino-2H-[1,2,4]triazol-3-ylamino)-2,6-dichlorophenyl]-2,6-diaza-spiro[3.3]heptane-2-carboxylic acid tert-butyl ester] | – | – | ≥ 10 µM | 0.216 µM |
| NCC1(CO)CN(c2c(Cl)cc(Nc3nc(N)n[nH]3)cc2Cl)C1 [Compound 13, {3-Aminomethyl-1-[4-(5-amino-2H-[1,2,4]triazol-3-ylamino)-2,6-dichlorophenyl]-azetidin-3-yl}-methanol] | – | – | ≥ 10 µM | 10 µM |
| Nc1nc(Nc2ccc(-c3cccnn3)c(Cl)c2)n[nH]1 [Compound 14, N3-(3-chloro-4-(pyridazin-3-yl)phenyl)-1H-1,2,4-triazole-3,5-diamine] | – | – | 15 µM | 6.52 µM |
| Nc1nc(Nc2cc(Cl)c(-n3cccn3)c(Cl)c2)n[nH]1 [Compound 17, N3-(3,5-dichloro-4-(1H-pyrazol-1-yl)phenyl)-1H-1,2,4-triazole-3,5-diamine] | – | – | 34.6 µM | 4.14 µM |
| CC(C)(C)OC(=O)N1CC=C(c2c(Cl)cc(Nc3n[nH]c(N)n3)cc2Cl)CC1 [Compound 18, tert-Butyl 4-(4-(5-amino-1H-1,2,4-triazol-3-ylamino)-2,6-dichlorophenyl)-5,6-dihydropyridine-1(2H)-carboxylate] | – | – | ≥ 10 µM | 0.088 µM |
| CC(C)(NS(=O)(=O)c1ccc(-c2c(Cl)cc(Nc3n[nH]c(N)n3)cc2C(F)(F)F)cn1)C(F)(F)F [Compound 25, 5-[4-(5-Amino-1H-[1,2,4]triazol-3-ylamino)-2-chloro-6-trifluoromethyl-phenyl]-pyridine-2-sulfonic acid (2,2,2-trifluoro-1,1-dimethyl-ethyl)-amide] | – | – | ≥ 10 µM | 0.005 µM |
| Nc1nc(Nc2ccc(-n3ccccc3=O)cc2)n[nH]1 [Compound 28, 1-[4-(5-Amino-1H-[1,2,4]triazol-3-ylamino)-phenyl]-1H-pyridin-2-one] | – | – | ≥ 100 µM | 100 µM |

| Compound | pEC50 ([1]; read-out: VSVpp (EC50)) | pEC50 [2] | EC50 [1] | EC50 [2] |
| --- | --- | --- | --- | --- |
| Nc1nc(Nc2ccc(-n3ccccc3=O)c(Cl)c2)n[nH]1 [Compound 29, 1-[4-(5-Amino-1H-[1,2,4]triazol-3-ylamino)-2-chloro-phenyl]-1H-pyridin-2-one] | – | – | 8.1 µM | 13.7 µM |
| Nc1nc(Nc2cc(Cl)c(-n3ccccc3=O)c(Cl)c2)n[nH]1 [Compound 30, 1-[4-(5-Amino-1H-[1,2,4]triazol-3-ylamino)-2,6-dichloro-phenyl]-1H-pyridin-2-one] | – | – | 5.6 µM | 5.75 µM |
| Nc1nc(Nc2cc(Cl)c(C3=NCCCN3)c(Cl)c2)n[nH]1 [Compound 31, N3-(3,5-dichloro-4-(1,4,5,6-tetrahydropyrimidin-2-yl)phenyl)-1H-1,2,4-triazole-3,5-diamine. trifluoroacetic salt] | – | – | 4.7 µM | 5.45 µM |
| CNC(=O)c1ccc(-c2c(Cl)cc(Nc3n[nH]c(N)n3)cc2C(F)(F)F)cn1 [Compound 32, 5-(4-(5-amino-1H-1,2,4-triazol-3-ylamino)-2-chloro-6-(trifluoromethyl)phenyl)-N-methylpicolinamide] | – | – | 21.8 µM | 0.169 µM |
| Nc1nc(Nc2cc(Cl)c(-c3ccnnc3)c(Cl)c2)n[nH]1 [Compound 33, N3-(3,5-dichloro-4-(pyridazin-4-yl)phenyl)-1H-1,2,4-triazole-3,5-diamine] | – | – | 10.6 µM | 0.78 µM |
| CC(=O)c1sccc1-c1c(Cl)cc(Nc2n[nH]c(N)n2)cc1Cl [Compound 34, 1-{3-[4-(5-Amino-1H-[1,2,4]triazol-3-ylamino)-2,6-dichloro-phenyl]-thiophen-2-yl}-ethanone] | – | – | 1.8 µM | 0.144 µM |
| Nc1nc(Nc2cc(Cl)c(-c3ccncc3)c(Cl)c2)n[nH]1 [Compound 35, N-3-(3,5-Dichloro-4-(pyridin-4-yl)phenyl)-1H-1,2,4-triazole-3,5-diamine] | – | – | 2.5 µM | 0.338 µM |
| Nc1nc(Nc2cc(Cl)c(-c3ccc(Cl)s3)c(Cl)c2)n[nH]1 [Compound 36, N-3-[3,5-Dichloro-4-(5-chloro-thiophen-2-yl)-phenyl]-1H-[1,2,4]triazole-3,5-diamine] | – | – | 11.9 µM | 0.558 µM |
| Nc1nc(Nc2cc(Cl)c(-c3cccnc3)c(Cl)c2)n[nH]1 [Compound 37, N-3-(3,5-Dichloro-4-pyridin-3-yl-phenyl)-1H-[1,2,4]triazole-3,5-diamine] | – | – | 8.1 µM | 0.413 µM |
| Nc1nc(Nc2cc(Cl)c(-c3cc[nH]n3)c(Cl)c2)n[nH]1 [Compound 38, N-3-[3,5-Dichloro-4-(1H-pyrazol-3-yl)-phenyl]-1H-[1,2,4]triazole-3,5-diamine] | – | – | 35.8 µM | 3.39 µM |
| Nc1nc(Nc2cc(Cl)c(-c3cncnc3)c(Cl)c2)n[nH]1 [Compound 39, N-3-(3,5-Dichloro-4-pyrimidin-5-yl-phenyl)-1H-[1,2,4]triazole-3,5-diamine] | – | – | 5.1 µM | 0.536 µM |
| COc1ncc(-c2c(Cl)cc(Nc3n[nH]c(N)n3)cc2Cl)cn1 [Compound 40, N-3-[3,5-Dichloro-4-(2-methoxy-pyrimidin-5-yl)-phenyl]-1H-[1,2,4]triazole-3,5-diamine] | – | – | 3.3 µM | 0.52 µM |
| Nc1nc(Nc2cc(Cl)c(-c3ccc(C(F)(F)F)nc3)c(Cl)c2)n[nH]1 [Compound 41, N-3-[3,5-Dichloro-4-(6-trifluoromethyl-pyridin-3-yl)-phenyl]-1H-[1,2,4]triazole-3,5-diamine] | – | – | 32.6 µM | 0.703 µM |
| N3-(2-chloro-4′-(4-methylpiperazin-1-yl)-6-(trifluoromethyl)biphenyl-4-yl)-1H-1,2,4-triazole-3,5-diamine [Compound 27] | – | 6.52 | – | – |
| N3-(3,5-dichloro-4-(1,2,3,6-tetrahydropyridin-4-yl)phenyl)-1H-1,2,4-triazole-3,5-diamine [Compound 19] | – | 6.30 | – | – |
| N3-(3-Chloro-4-(1-methyl-1H-tetrazol-5-yl)phenyl)-1H-1,2,4-triazole-3,5-diamine [Compound 15] | – | 5.17 | – | – |
| N3-(3-chloro-4-(1-methyl-1H-1,2,4-triazol-5-yl)phenyl)-1H-1,2,4-triazole-3,5 diamine [Compound 16] | – | 4.46 | – | – |
| N3-[3-Chloro-4-(1,2,3,6-tetrahydro-pyridin-4-yl)-5-trifluoromethyl-phenyl]-1H-[1,2,4]triazole-3,5-diamine hydrochloride [Compound 21] | – | 6.25 | – | – |
| N*3*-(3,5-Dichloro-4-[1,2,4]triazolo[4,3-a]pyridin-3-yl-phenyl)-1H-[1,2,4]triazole-3,5-diamine [Compound 22] | – | 5.69 | – | – |
